Test results published in publication PMC12267067, “Targeting GRPR for sex hormone-dependent cancer after loss of E-cadherin” (Nature, 2025).
No end group written: not given here.

Tests used:
[1] = tested on: YAP1 activation signature; experiment: YAP1 activation signature (GSEA) and YAP1 score by RNA-seq, human melanoma cell lines; assay type: cell-based; conditions: 4 h, 10 nM GRP
Description: The transcriptome, copy-number alteration, mutations and corresponding clinical data of the TCGA–SKCM (n = 473), TCGA–BRCA (n = 1,215), TCGA–STAD (n = 450), TCGA–LUSC (n = 553) and TCGA–KIRC (n = 606) datasets were retrieved from the National Cancer Institute Genomic Data Commons repository using the TCGAbiolinks R package in August 2022 (ref. [51]). The mRNA levels were calculated from RNA-sequencing read counts using RNA-Seq V2 RSEM and normalized to TPM. Expression of CDH1, CCND1, BRAF and KRAS was modelled over time using LOWESS smoothing with 1,860 points. Expression levels from acral melanoma were retrieved from GEO under accession number GSE162682. Survival analyses were carried out by separating the cohort into two groups according to gene expression. The threshold was set to 1 TPM, commonly considered to be the limit for sufficient protein expression of the transcript. The negative group was set to an expression 0.1 TPM or less to have clear separation in terms of expression (factor 10) from the positive group. […] The scoring of YAP1 activation was determined from the expression of CYR61, CTGF, TEAD4, LATS2 and CRIM1. […] The anoikis-resistance score was calculated on the basis of the expression of S100A7A, MTPN, ATP10B, S100A8, RSAD2, RENBP, CDHR1 and CD36. The ER-activation score was calculated according to the expressions of GATA4, SDK2, EGR3, IL19, GSG1L, RSPO1, PGR, IL24 and PDZK1. […]
RNA was extracted from cells and mouse tumours using the miRNeasy kit (Qiagen, 217004), according to the manufacturer’s protocol. RNA integrity (RIN) was measured using an Agilent Bioanalyser 2100 (Agilent Technologies) and an RNA nano 6000 kit (5067-1511, Agilent Technologies). […] RNA concentrations were measured using a NanoDrop (NanoDrop Technologies). […] The libraries were equimolarly pooled and subjected to qPCR quantification using the KAPA library quantification kit (Roche). […] Reads were mapped to the mm10 mouse reference genome (gencode m13 version-GRCm38.p5) or hg38 human reference genome (gencode 42 version-GRCh38.p13) using STAR[60]. […]

[2] = tested on: human melanoma cells (MDA-MB-435S); experiment: Anoikis assay, human melanoma cells; assay type: cell-based; conditions: 10 nM GRP and/or 1 µM RC, 48 h, poly-HEMA, low serum, annexin V/7-AAD
Description: (§1) Six-well plates were coated with poly-HEMA to prevent cell attachment to the well surface. Cells were seeded in low-serum medium containing 10 nM GRP and/or 1 µM RC. Then, 48 hours after cell seeding, cells were collected and washed with ice-cold PBS twice and resuspended in annexin V binding buffer (556454, BD Biosciences) and incubated at room temperature in the dark with 7-amino-actinomycin D (7-AAD, 559925, BD Biosciences) and annexin-V for 15 min. Annexin V was coupled to FITC (556420, BD Biosciences) for the 1057 and MDA-MB-435S cell lines and to PE (556421, BD Biosciences) for the other cell lines. Cells were sorted using a FACS LSRFortessa (BD Biosciences) to determine the percentage of annexin V- and/or 7-AAD-positive cells using a 488 nm laser for annexin V-FITC and annexin V-PE and a 675 nm laser for7-AAD. All quantification was performed using Flow-Jo.

[3] = tested on: mouse melanoma cells (1057, 1014, 1062); experiment: Anoikis assay, mouse melanoma cells; assay type: cell-based; conditions: 48 h
Description: as §1

[4] = tested on: ECAD in 501mel cells with and without GRPR; experiment: Western blot of ECAD with and without GRP; assay type: cell-based, human; conditions: 501mel cells expressing GRPR, 10 nM GRP
Description: Whole-cell lysates were prepared and analysed as described previously. The primary antibodies used were: E-cadherin (610182, BD Transduction Laboratories, dilution 1/1,000); ERα (MA1-27107, Invitrogen, dilution 1/500); YAP (14074, Cell Signaling, dilution 1/1,000); β-actin (A5441, Sigma, dilution 1/5,000); and vinculin (4650, Cell Signaling, dilution 1/5,000). All raw data are provided in Supplementary Fig. 1.

“GRP: GRPR's natural agonist, endogenous ligand of GRPR (4011670 bachem) (VPLPAGGGTVLTKMYPRGNHWAVGHLM; not fully specified; ends and bridges not checked; UniProt P07492 24-50, looked up)” was tested, and the “GSEA YAP activation, GRP vs. Mock: NES” value ([1]; 501mel-GRPR, FDR <0.0001) was 2.07, the “GSEA YAP activation, GRP vs. Mock: NES” value ([1]; Dauv-1, FDR <0.0001) was 2.21 and the “GSEA YAP activation, GRP vs. Mock: NES” value ([1]; MDA-MB-435S, FDR =0.0408) was 1.32. For the same substance, the “anoikis resistance (apoptotic cells without matrix attachment), GRPR+ human cells” value [2] was “promoted”, the “anoikis resistance (apoptotic cells without matrix attachment), GRPR+ mouse cells” value ([3]; 1057, 10 nM GRP and/or 1 µM RC, poly-HEMA, low serum, annexin V/7-AAD) was “promoted” and the “anoikis resistance, Grpr-negative mouse cells” value ([3]; male ∆Ecad (1062) and female Ecad (1014) cells, 10 nM GRP) was “did not promote anoikis resistance”. For the same substance, the ECAD protein level [4] was “lower”.
